Reference: patent US8440653B2, “3-substituted-1,4-diazepan-2-one melanocortin-5 receptor antagonists” (Mimetica Pty Ltd, priority 2008, dated 2013)

The compounds below were run against T1, human MC5R (hMC5R) (Homo sapiens, UniProt P33032) (assay: Human MC5R radioligand binding assay ([125I] NDP-MSH displacement)). Settings: hMC5R membranes, [125I] NDP-MSH; tested as trifluoroacetate or hydrochloride salts or free bases; read-out: MC5R radioligand IC50.
T1 construct: purchased Perkin Elmer RBXMC5M400UA
Procedure: Assessments of compound binding to human MC5R (hMC5R) by displacement of an ^125I-labeled NDP-MSH receptor ligand peptide were performed essentially as described in the data sheets produced by Perkin Elmer to accompany their frozen hMC5R membranes (Perkin Elmer catalog number RBXMC5M400UA).
Na^125I (0.5 mCi, 17.4 Ci/mg) was added to 50 μL sodium phosphate (50 mM, pH 7.4) in an eppendorf tube precoated with IODOGEN. After incubation for 10 mins the phosphate buffer containing the iodine was added to NDP-MSH (10 ul at 1 mg/mL) in a separate eppendorf tube. This was incubated for a further 10 mins. The iodinated NDP-MSH was purified by HPLC on a Zorbax SB 300 column using solvent A: 0.05% TFA and solvent B: 90% acetonitrile 0.045% TFA with a linear gradient, 0-67% B over 60 mins. The ^125I NDP-MSH eluted at 52 min after the unlabeled starting material (48 min) and was counted and stored in the freezer.
Incubation buffer: 25 mM HEPES-KOH (pH 7.0), 1.5 mM CaCl2, 1 mM MgSO4, 0.1 M NaCl, 1 mM 1,10-phenanthroline, and 1 Complete™ protease inhibitor tablet/100 mL (Roche, catalog number 1873580)
Perkin Elmer frozen hMC5 membranes: catalog number RBXMC5M400UA, 0.4 mL/vial; 400 microassays/vial. 0.78 mg/mL protein concentration
Vials of frozen membranes were thawed rapidly immediately before use, diluted with binding buffer and vortexed. Resuspended membranes were kept on ice until they were added to the wells of the plate.
Assays were performed in 96 well polypropylene plates. […] This was incubated for 1 hr at 37° C. […] Non-specific binding just under 5%.
Representative compounds of the present invention were tested for binding in the hMC5R assay as in Example 46, as listed in Table 3. The compounds were tested as their trifluoroacetate or hydrochloride salts, or as their free bases.

T1 sequence (P33032 whole entry): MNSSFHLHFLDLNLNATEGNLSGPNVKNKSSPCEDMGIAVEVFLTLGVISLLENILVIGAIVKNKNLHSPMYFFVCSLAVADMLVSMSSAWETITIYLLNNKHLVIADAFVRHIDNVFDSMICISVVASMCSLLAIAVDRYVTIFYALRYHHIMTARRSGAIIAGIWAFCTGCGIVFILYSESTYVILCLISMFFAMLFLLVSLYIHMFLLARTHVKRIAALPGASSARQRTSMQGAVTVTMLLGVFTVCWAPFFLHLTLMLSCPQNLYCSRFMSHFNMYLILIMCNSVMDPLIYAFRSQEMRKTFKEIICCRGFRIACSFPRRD

Row | SMILES | IC50 [nM]
1 | CCCC[C@@H]1N[C@H](CNC(=O)c2ccc3cc(Cl)ccc3c2)CCN(C[C@@H](CC)c2ccccc2)C1=O [Compound 70, N-(((3S,5S)-3-butyl-2-oxo-1-((S)-2-phenylbutyl)-1,4-diazepan-5-yl)methyl)-6-chloro-2-naphthamide] | < 1000
2 | CC[C@H](CN1CC[C@@H](CNC(=O)c2ccc3cc(Cl)ccc3c2)N[C@@H](CCOC)C1=O)c1ccccc1 [Compound 77, 6-chloro-N-(((3S,5S)-3-(2-methoxyethyl)-2-oxo-1-((S)-2-phenylbutyl)-1,4-diazepan-5-yl)methyl)-2-naphthamide] | < 100
3 | Nc1ccccc1C[C@@H]1N[C@H](CNC(=O)/C=C/c2ccc(Cl)cc2)CCN(CC(c2ccccc2)c2ccccc2)C1=O [Compound 68] | < 1000
4 | O=C(NC[C@@H]1CCN(CC(c2ccccc2)c2ccccc2)C(=O)[C@H](Cc2ccccc2N2CCCCC2)N1)c1ccc2ccccc2c1 [Compound 71, N-(((3S,5S)-1-(2,2-diphenylethyl)-2-oxo-3-(2-(piperidin-1-yl)benzyl)-1,4-diazepan-5-yl)methyl)-2-naphthamide] | < 10000
5 | CC[C@H](CN1CC[C@@H](CNC(=O)c2ccc3ccccc3c2)N[C@@H](CCC(=O)NC2CCCCC2)C1=O)c1ccccc1 [Compound 73, N-(((3S,5S)-3-(3-(cyclohexylamino)-3-oxopropyl)-2-oxo-1-((S)-2-phenylbutyl)-1,4-diazepan-5-yl)methyl)-2-naphthamide] | < 1000
6 | Nc1ccccc1C[C@@H]1N[C@H](CNC(=O)c2ccc3ccccc3c2)CCN(CC(c2ccccc2)c2ccccc2)C1=O [Compound 69, N-(((3S,5S)-3-(2-aminobenzyl)-1-(2,2-diphenylethyl)-2-oxo-1,4-diazepan-5-yl)methyl)-2-naphthamide] | < 1000
7 | CC[C@H](CN1CC[C@@H](CNC(=O)c2ccc(Cl)c(Cl)c2)N[C@@H](CCC(=O)N2CCCCC2)C1=O)c1ccccc1 [Compound 67, 3,4-dichloro-N-(((3S,5S)-2-oxo-3-(3-oxo-3-(piperidin-1-yl)propyl)-1-((S)-2-phenylbutyl)-1,4-diazepan-5-yl)methyl)benzamide] | < 10000
8 | O=C(NC[C@@H]1CCN(CC(c2ccccc2)c2ccccc2)C(=O)[C@H](CCC2CCCCC2)N1)c1ccc2ccccc2c1 [Compound 59, N-(((3S,5S)-3-(2-cyclohexylethyl)-1-(2,2-diphenylethyl)-2-oxo-1,4-diazepan-5-yl)methyl)-2-naphthamide] | < 1000
9 | CC[C@H](CN1CC[C@@H](CNC(=O)c2ccc3cc(Cl)ccc3c2)N[C@@H](CCCCO)C1=O)c1ccccc1 [Compound 76, 6-chloro-N-(((3S,5S)-3-(4-hydroxybutyl)-2-oxo-1-((S)-2-phenylbutyl)-1,4-diazepan-5-yl)methyl)-2-naphthamide] | < 100
10 | O=C(/C=C/c1ccc(Cl)cc1)NC[C@@H]1CCN(CC(c2ccccc2)c2ccccc2)C(=O)[C@H](Cc2c[nH]cn2)N1 [Compound 63, (E)-N-(((3S,5S)-3-((1H-imidazol-4-yl)methyl)-1-(2,2-diphenylethyl)-2-oxo-1,4-diazepan-5-yl)methyl)-3-(4-chlorophenyl)acrylamide] | < 10000
11 | CC[C@H](CN1CC[C@@H](CNC(=O)c2ccc3cc(Cl)ccc3c2)N[C@@H](CC(C)C)C1=O)c1ccccc1 [Compound 79, 6-chloro-N-(((3S,5S)-3-isobutyl-2-oxo-1-((S)-2-phenylbutyl)-1,4-diazepan-5-yl)methyl)-2-naphthamide] | < 10000
12 | O=C(NC[C@@H]1CCN(CC(c2ccccc2)c2ccccc2)C(=O)[C@H](Cc2cccnc2)N1)c1ccc2ccccc2c1 [Compound 47, N-(((3S,5S)-1-(2,2-diphenylethyl)-2-oxo-3-(pyridin-3-ylmethyl)-1,4-diazepan-5-yl)methyl)-2-naphthamide] | < 1000
13 | NC(=O)CC[C@@H]1N[C@H](CNC(=O)c2ccc3ccccc3c2)CCN(CC(c2ccccc2)c2ccccc2)C1=O [Compound 52, N-(((3S,5S)-3-(3-amino-3-oxopropyl)-1-(2,2-diphenylethyl)-2-oxo-1,4-diazepan-5-yl)methyl)-2-naphthamide] | < 1000
14 | CCCCN(C)C(=O)CC[C@@H]1N[C@H](CNC(=O)c2ccc3ccccc3c2)CCN(C[C@@H](CC)c2ccccc2)C1=O [Compound 72, N-(((3S,5S)-3-(3-(butyl(methyl)amino)-3-oxopropyl)-2-oxo-1-((S)-2-phenylbutyl)-1,4-diazepan-5-yl)methyl)-2-naphthamide] | < 1000
15 | O=C(/C=C/c1ccc(Cl)cc1)NC[C@@H]1CCN(CC(c2ccccc2)c2ccccc2)C(=O)[C@H](CC(=O)N2CCCCC2)N1 [Compound 65, (E)-3-(4-chlorophenyl)-N-(((3S,5S)-1-(2,2-diphenylethyl)-2-oxo-3-(2-oxo-2-(piperidin-1-yl)ethyl)-1,4-diazepan-5-yl)methyl)acrylamide] | < 1000
16 | CC[C@H](CN1CC[C@@H](CNC(=O)c2ccc(Cl)c(Cl)c2)N[C@@H](CCO)C1=O)c1ccccc1 [Compound 80, 3,4-dichloro-N-(((3S,5S)-3-(2-hydroxyethyl)-2-oxo-1-((S)-2-phenylbutyl)-1,4-diazepan-5-yl)methyl)benzamide] | < 10000
17 | O=C(NC[C@@H]1CCN(CC(c2ccccc2)c2ccccc2)C(=O)[C@H](Cc2ccncc2)N1)c1ccc2ccccc2c1 [Compound 48, N-(((3S,5S)-1-(2,2-diphenylethyl)-2-oxo-3-(pyridin-4-ylmethyl)-1,4-diazepan-5-yl)methyl)-2-naphthamide] | < 10000
18 | N=C(N)NOCC[C@@H]1N[C@H](CNC(=O)c2ccc3ccccc3c2)CCN(CC(c2ccccc2)c2ccccc2)C1=O [Compound 46, N-(((3S,5S)-1-(2,2-diphenylethyl)-3-(2-(guanidinooxy)ethyl)-2-oxo-1,4-diazepan-5-yl)methyl)-2-naphthamide] | < 1000
19 | O=C(/C=C/c1ccc(Cl)cc1)NC[C@@H]1CCN(CC(c2ccccc2)c2ccccc2)C(=O)[C@H](Cc2ccccn2)N1 [Compound 45, (E)-3-(4-chlorophenyl)-N-(((3S,5S)-1-(2,2-diphenylethyl)-2-oxo-3-(pyridin-2-ylmethyl)-1,4-diazepan-5-yl)methyl)acrylamide] | < 10000
20 | CCCCCC[C@@H]1N[C@H](CNC(=O)c2ccc3cc(Cl)ccc3c2)CCN(C[C@@H](CC)c2ccccc2)C1=O [Compound 75, 6-chloro-N-(((3S,5S)-3-hexyl-2-oxo-1-((S)-2-phenylbutyl)-1,4-diazepan-5-yl)methyl)-2-naphthamide] | < 100
21 | CC[C@H](CN1CC[C@@H](CNC(=O)c2ccc3cc(Cl)ccc3c2)N[C@@H](CCC2CCCCC2)C1=O)c1ccccc1 [Compound 74, 6-chloro-N-(((3S,5S)-3-(2-cyclohexylethyl)-2-oxo-1-((S)-2-phenylbutyl)-1,4-diazepan-5-yl)methyl)-2-naphthamide] | < 10000
22 | O=C(/C=C/c1ccc(Cl)cc1)NC[C@@H]1CCN(CC(c2ccccc2)c2ccccc2)C(=O)[C@H](CC(=O)Nc2ccccn2)N1 [Compound 64, (E)-3-(4-chlorophenyl)-N-(((3S,5S)-1-(2,2-diphenylethyl)-2-oxo-3-(2-oxo-2-(pyridin-2-ylamino)ethyl)-1,4-diazepan-5-yl)methyl)acrylamide] | < 1000
23 | CCCC[C@@H]1N[C@H](CNC(=O)c2ccc3ccccc3c2)CCN(CC(c2ccccc2)c2ccccc2)C1=O [Compound 49, N-(((3S,5S)-3-butyl-1-(2,2-diphenylethyl)-2-oxo-1,4-diazepan-5-yl)methyl)-2-naphthamide] | < 1000
24 | O=C(NC[C@@H]1CCN(CC(c2ccccc2)c2ccccc2)C(=O)[C@H](CCc2ccccc2)N1)c1ccc2ccccc2c1 [Compound 57, N-(((3S,5S)-1-(2,2-diphenylethyl)-2-oxo-3-phenethyl-1,4-diazepan-5-yl)methyl)-2-naphthamide] | < 1000
25 | O=C(NC[C@@H]1CCN(CC(c2ccccc2)c2ccccc2)C(=O)[C@H](CC2CCCCC2)N1)c1ccc2ccccc2c1 [Compound 53, N-(((3S,5S)-3-(cyclohexylmethyl)-1-(2,2-diphenylethyl)-2-oxo-1,4-diazepan-5-yl)methyl)-2-naphthamide] | < 1000
26 | CC[C@H](CN1CC[C@@H](CNC(=O)c2ccc3cc(Cl)ccc3c2)N[C@@H](CCOCc2ccccc2)C1=O)c1ccccc1 [Compound 78, N-(((3S,5S)-3-(2-(benzyloxy)ethyl)-2-oxo-1-((S)-2-phenylbutyl)-1,4-diazepan-5-yl)methyl)-6-chloro-2-naphthamide] | < 10000
27 | O=C(NC[C@@H]1CCN(CC(c2ccccc2)c2ccccc2)C(=O)[C@H](Cc2ccccc2)N1)c1ccc2ccccc2c1 [Compound 61, N-(((3S,5S)-3-benzyl-1-(2,2-diphenylethyl)-2-oxo-1,4-diazepan-5-yl)methyl)-2-naphthamide] | < 1000
